Source: US4443619A, “Chlorocitric acids” (Hoffmann-La Roche Inc., priority 1981, dated 1984)
Counter-ions that a name gives are not always drawn.

What was measured:
[1] = Effect of stereoisomers of chlorocitric acid on food consumption in meal-fed rats (Example 14); type: in vivo, Charles River female rats; conditions: mean ± S.E.
Procedure: Animals were fasted 48 hr, then meal-fed the 70% glucose diet described by A. C. […] Following 5 to 12 days alimentation on the meal-feeding regimen, rats were dosed with the appropriate compounds orally by intubation 1/2 hr before the 3 hr meal. Food cups were weighed immediately after the meal. The control group consisted of 5 to 10 rats, while the experimental group consisted of 4 to 6 rats.

[2] = Anorectic activities of stereoisomers: 3-day food consumption and body weight gain in meal-fed rats; type: in vivo, Charles River female rats; conditions: 1.32 mmoles/kg oral, 3 days, mean ± S.E.
Procedure: Charles River female rats (Charles River Breeding Laboratories, Wilmington, Mass.), weighing 196 to 210 g, were individually housed in wire-bottomed cages in a temperature-regulated (22° C.) light-controlled room (12 hr light, 6 a.m. to 6 p.m. and 12 hr dark, 6 p.m. to 6 a.m.). Animals were fasted 48 hr, then meal-fed a 70% glucose diet from 8 to 11 a.m. Following 5 to 12 days alimentation on the meal-feeding regimen, rats were dosed with the appropriate compounds orally by intubation 1/2 hr before the 3 hr meal for 3 days. The total food consumption and body weight gained during the 3 day period were determined. The control group consisted of 16 rats, while the experimental group consists of 8 rats.

Stomach Emptying = assay: Effect on stomach emptying ([14C]glucose load) in rats (Example 25); type: in vivo; conditions: 0.33 mmoles/kg oral, 60 min after [14C]glucose load, mean ± S.E.
Procedure: Rats were trained to consume a 3 hr 70% glucose meal from 8 a.m. to 11 a.m. daily. On the experimental day, compounds were administered orally by intubation 30 min before a [^14 C]glucose load was given also by intubation. […] Sixty minutes later the rats were killed by decapitation; blood and stomachs were collected on ice.
Data are expressed as follows: dpm×10^3 per ml of serum and dpm×10^3 per stomach.

[3] = Food consumption of three diets in meal-fed rats (Example 15); type: in vivo, Charles River female rats; conditions: mean ± S.E.
Procedure: Charles River female rats (Charles River Breeding Laboratories, Wilmington, Mass.), weighing 170 to 200 g, were individually housed in wire-bottomed cages in a temperature-regulated (22° C.) light-controlled room (12 hr light, 6 a.m. to 6 p.m. and 12 hr dark, 6 p.m. to 6 a.m.). Animals were fasted 48 hr, then meal-fed the indicated diets from 8 to 11 a.m. Following 5 to 12 days alimentation on the meal-feeding regimen, rats were dosed with the appropriate compounds orally by intubation 1/2 hr before the 3 hr meal. Food cups were weighed immediately after the 1st, 2nd and 3rd hr of the meal. The control groups consisted of 8 to 10 rats and the experimental group considered of 5 to 6 rats.

[4] = Anorectic effect in 8 hour meal-fed Zucker rats (Example 17); type: in vivo, lean (Fa/-) and obese (fa/fa)
Procedure: Lean (Fa/-) Zucker rats and obese (fa/fa) Zucker rats of both sexes were individually housed in wire-bottomed cages in a temperature-regulated (22° C.) light-controlled room (12 hr light, 6 a.m. to 6 p.m. and 12 hr dark, 6 p.m. 6 a.m.). The animals were fed a high carbohydrate (70% glucose) diet ad libitum for 13 days, dosed with the indicated compounds by oral intubation for 9 days and allowed to recover for 3 days. The animals were then meal fed from 8 a.m. to 4 p.m. for a period of 5 days, following which they were continued on the same meal schedule for an additional 6 days. During the 6-day period, the animals were administered the indicated compounds by oral intubation at 8 a.m. and 12 p.m. Food cups were weighed immediately after the meal.

[5] = Body weight gain in 8 hour meal-fed Zucker rats (Example 18); type: in vivo, lean (Fa/-) and obese (fa/fa); conditions: 6 days, mean ± S.E.
Procedure: Lean (Fa/-) Zucker rats and obese (fa/fa) Zucker rats of both sexes were individually housed in wire-bottomed cages in a temperature-regulated (22° C.) light-controlled room (12 hr light, 6 a.m. to 6 p.m. and 12 hr dark, 6 p.m. to 6 a.m.). The animals were fed a high carbohydrate (70% glucose) diet ad libitum for 13 days, dosed with the indicated compounds by oral intubation for 9 days and allowed to recover for 3 days. The animals were then meal fed from 8 a.m. to 4 p.m. for a period of 5 days, following which they were continued on the same meal schedule for an additional 6 days. During the 6-day period, the animals were administered the indicated compounds by oral intubation at 8 a.m. and 12 p.m. Body weight gain during the 6-day period was determined.

[6] = Food intake in dogs, pyramiding oral doses (Examples 26 and 27); type: in vivo, beagle dogs
Procedure: Twelve beagle dogs of both sexes weighing 7.6-12.2 kg were used for this test. The test compounds were contained in gelatin capsules for oral administration to two dogs of each sex. The animals were weighed and food consumption calculated daily excluding weekends throughout the test period. Each animal received 800 grams of diet daily consisting of 400 grams of Wayne pellet dog food mixed with 400 ml distilled water. The animals received pyramiding oral doses of the test compound over the three week period. On Monday and Tuesday of the first week the animals were weighed and food consumption was recorded (control). The animals received 3 mg/kg on Wednesday and 10 mg/kg on Friday of the first week. Doses of 30, 100 and 300 mg/kg were administered on Monday, Wednesday and Friday respectively during the second week. A final dose of 1000 mg/kg was administered on Monday of the third week.
Food intake was determined by the procedure by pyramiding doses described in Example 26.

[7] = Anorectic activity, body weight and carcass analysis in mammals (summary statements); type: in vivo; conditions: acute meal-fed assay utilizing three diets and pyramiding dose studies; compared with hydroxycitric acid
[8] = 0.66 mmoles/kg oral, control 8.2 ± 1.2
[9] = 2.63 mmoles/kg oral, control 13.5 ± 0.8
[10] = 20% Corn Oil, 0.33 mmoles (75 mg)/kg oral
[11] = 20% Corn Oil, 0.66 mmoles (150 mg)/kg oral
[12] = 70% Glucose, 0.33 mmoles (75 mg)/kg oral
[13] = 70% Glucose, 0.66 mmoles (150 mg)/kg oral
[14] = Chow, 0.33 mmoles (75 mg)/kg oral
[15] = Chow, 0.66 mmoles (150 mg)/kg oral
[16] = test day 20, no dose, (±) one animal, (+) and (-) two animals

SMILES: O=C(O)C[C@@](O)(C(=O)O)[C@H](Cl)C(=O)O [(+)-erythro-Chlorocitric acid, (+)-erythro-chlorocitric acid]
- Food consumption [1, 8]: 8.1 ± 1.6 g
- Food consumption [1, 9]: 10.5 ± 0.8 g
- 3-Day Body Weight Gain [2]: -1.5 ± 2.3 g
- 3-Day Food Consumption [2]: 31.8 ± 2.3 g
- Serum, total per ml (Stomach Emptying): 5.0 ± 0.4 dpm × 10^3
- Stomach Contents, total per stomach (Stomach Emptying): 1832 ± 160 dpm × 10^3

SMILES: O=C(O)C[C@](O)(C(=O)O)[C@H](Cl)C(=O)O [(+)-threo-Chlorocitric acid, (+)-threo-chlorocitric acid]
- Food consumption [1, 8]: 6.8 ± 1.0 g
- Food consumption [1, 9]: 5.1 ± 1.2 g
- Food intake, 1st hr [3, 10]: 7.1 ± 1.2 g
- Food intake, 2nd hr [3, 10]: 3.9 ± 0.5 g
- Food intake, 3rd hr [3, 10]: 3.2 ± 0.6 g
- Food intake, Total [3, 10]: 14.2 ± 1.2 g
- Food intake, 1st hr [3, 11]: 6.7 ± 1.6 g
- Food intake, 2nd hr [3, 11]: 3.1 ± 0.6 g
- Food intake, 3rd hr [3, 11]: 2.2 ± 0.7 g
- Food intake, Total [3, 11]: 12.3 ± 1.6 g
- Food intake, 1st hr [3, 12]: 6.2 ± 1.8 g
- Food intake, 2nd hr [3, 12]: 2.4 ± 0.8 g
- Food intake, 3rd hr [3, 12]: 2.4 ± 0.5 g
- Food intake, Total [3, 12]: 11.0 ± 2.3 g
- Food intake, 1st hr [3, 13]: 3.2 ± 0.5 g
- Food intake, 2nd hr [3, 13]: 5.1 ± 1.3 g
- Food intake, 3rd hr [3, 13]: 1.7 ± 0.3 g
- Food intake, Total [3, 13]: 10.1 ± 1.7 g
- Food intake, 1st hr [3, 14]: 7.4 ± 0.6 g
- Food intake, 2nd hr [3, 14]: 2.6 ± 0.7 g
- Food intake, 3rd hr [3, 14]: 2.2 ± 0.5 g
- Food intake, Total [3, 14]: 12.2 ± 0.4 g
- Food intake, 1st hr [3, 15]: 7.7 ± 0.5 g
- Food intake, 2nd hr [3, 15]: 3.9 ± 0.5 g
- Food intake, 3rd hr [3, 15]: 1.8 ± 0.9 g
- Food intake, Total [3, 15]: 13.4 ± 0.9 g
- 3-Day Body Weight Gain [2]: -3.5 ± 1.2 g
- 3-Day Food Consumption [2]: 26.5 ± 1.3 g
- Daily Food Consumption ([4]; Fa/- lean, 0.66 mmoles/kg oral, treatment day 1): 10.1 ± 0.8 g
- Daily Food Consumption ([4]; Fa/- lean, 0.66 mmoles/kg oral, treatment day 2): 8.7 ± 0.3 g
- Daily Food Consumption ([4]; Fa/- lean, 0.66 mmoles/kg oral, treatment day 3): 11.7 ± 0.7 g
- Daily Food Consumption ([4]; Fa/- lean, 0.66 mmoles/kg oral, treatment day 4): 9.8 ± 0.9 g
- Daily Food Consumption ([4]; Fa/- lean, 0.66 mmoles/kg oral, treatment day 5): 12.8 ± 0.9 g
- Daily Food Consumption ([4]; Fa/- lean, 0.66 mmoles/kg oral, treatment day 6): 11.4 ± 0.7 g
- Daily Food Consumption ([4]; Fa/- lean, 0.66 mmoles/kg, day 0 (pretreatment)): 10.6 ± 0.8 g
- Daily Food Consumption ([4]; fa/fa obese, 0.66 mmoles/kg oral, treatment day 1): 10.3 ± 0.4 g
- Daily Food Consumption ([4]; fa/fa obese, 0.66 mmoles/kg oral, treatment day 2): 8.8 ± 0.8 g
- Daily Food Consumption ([4]; fa/fa obese, 0.66 mmoles/kg oral, treatment day 3): 11.3 ± 1.0 g
- Daily Food Consumption ([4]; fa/fa obese, 0.66 mmoles/kg oral, treatment day 4): 11.6 ± 1.2 g
- Daily Food Consumption ([4]; fa/fa obese, 0.66 mmoles/kg oral, treatment day 5): 12.3 ± 1.5 g
- Daily Food Consumption ([4]; fa/fa obese, 0.66 mmoles/kg oral, treatment day 6): 14.2 ± 1.8 g
- Daily Food Consumption ([4]; fa/fa obese, 0.66 mmoles/kg, day 0 (pretreatment)): 14.3 ± 1.4 g
- Body Weight Gain ([5]; Fa/- lean, 0.66 mmoles/kg b.i.d. oral): 2.5 ± 2.3 g
- Body Weight Gain ([5]; fa/fa obese, 0.66 mmoles/kg b.i.d. oral): -3.6 ± 2.0 g
- Serum, total per ml (Stomach Emptying): 3.4 ± 0.6 dpm × 10^3
- Stomach Contents, total per stomach (Stomach Emptying): 1946 ± 361 dpm × 10^3
- Food Consumption, % of control [6, 16]: 96 % of control
- Food consumption [6, 16]: 583 ± 17 g
- Food consumption ([6]; test days -2, -1, before dosing (control period)): 610 ± 43 g

SMILES: O=C(O)C[C@](O)(C(=O)O)[C@@H](Cl)C(=O)O [(-)-erythro-Chlorocitric acid, (-)-erythro-chlorocitric acid]
- Food consumption [1, 8]: 7.0 ± 1.9 g
- Food consumption [1, 9]: 7.2 ± 1.5 g
- 3-Day Body Weight Gain [2]: -4.8 ± 3.2 g
- 3-Day Food Consumption [2]: 24.5 ± 1.8 g
- Serum, total per ml (Stomach Emptying): 5.1 ± 0.4 dpm × 10^3
- Stomach Contents, total per stomach (Stomach Emptying): 1491 ± 232 dpm × 10^3

SMILES: O=C(O)CC(O)(CC(=O)O)C(=O)O [Citric Acid]
- Food consumption [1, 9]: 12.7 ± 1.7 g
- Daily Food Consumption ([4]; Fa/- lean, 1.32 mmoles/kg oral, treatment day 1): 10.6 ± 1.2 g
- Daily Food Consumption ([4]; Fa/- lean, 1.32 mmoles/kg oral, treatment day 2): 10.0 ± 1.2 g
- Daily Food Consumption ([4]; Fa/- lean, 1.32 mmoles/kg oral, treatment day 3): 12.7 ± 1.0 g
- Daily Food Consumption ([4]; Fa/- lean, 1.32 mmoles/kg oral, treatment day 4): 11.9 ± 0.7 g
- Daily Food Consumption ([4]; Fa/- lean, 1.32 mmoles/kg oral, treatment day 5): 12.6 ± 0.8 g
- Daily Food Consumption ([4]; Fa/- lean, 1.32 mmoles/kg oral, treatment day 6): 13.1 ± 0.9 g
- Daily Food Consumption ([4]; Fa/- lean, 1.32 mmoles/kg, day 0 (pretreatment)): 11.0 ± 0.8 g
- Daily Food Consumption ([4]; fa/fa obese, 1.32 mmoles/kg oral, treatment day 1): 11.4 ± 0.8 g
- Daily Food Consumption ([4]; fa/fa obese, 1.32 mmoles/kg oral, treatment day 2): 13.8 ± 1.2 g
- Daily Food Consumption ([4]; fa/fa obese, 1.32 mmoles/kg oral, treatment day 3): 16.5 ± 1.0 g
- Daily Food Consumption ([4]; fa/fa obese, 1.32 mmoles/kg oral, treatment day 4): 14.8 ± 0.9 g
- Daily Food Consumption ([4]; fa/fa obese, 1.32 mmoles/kg oral, treatment day 5): 15.7 g
- Daily Food Consumption ([4]; fa/fa obese, 1.32 mmoles/kg oral, treatment day 6): 16.0 ± 1.0 g
- Daily Food Consumption ([4]; fa/fa obese, 1.32 mmoles/kg, day 0 (pretreatment)): 13.4 ± 0.8 g
- Body Weight Gain ([5]; Fa/- lean, 1.32 mmoles/kg b.i.d. oral): 2.8 ± 3.7 g
- Body Weight Gain ([5]; fa/fa obese, 1.32 mmoles/kg b.i.d. oral): 3.4 ± 1.6 g
- anorectic activity as measured by reduction in food consumption [7]: inactive

SMILES: O=C(O)CC(O)(CC(=O)O)C(=O)O [Trisodium Citrate, reference compound]
- Serum, total per ml (Stomach Emptying): 6.4 ± 0.1 dpm × 10^3
- Stomach Contents, total per stomach (Stomach Emptying): 1180 ± 208 dpm × 10^3
